Laboratory results as given in PubChem BioAssay (NCI).
Values joined by “and” are separate entries in the source; they are usually repeats but may differ in a detail not shown here. Equal values may be shown once.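 Method: 48-hour compound exposure of cells in 96-well plates, five concentrations, linear interpolation of endpoints. GI50 = concentration required for 50% inhibition of growth. TGI is the concentration that stops growth completely.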

How the values were obtained:
Assay in all cases: growth of human tumour cells (NCI), 48 h
SK-MEL-5 melanoma = test system: SK-MEL-5 melanoma
HCC-2998 colon = test system: HCC-2998 colon
U251 CNS = test system: U251 CNS
HT29 colon = test system: HT29 colon
MALME-3M melanoma = test system: MALME-3M melanoma
HCT-116 colon = test system: HCT-116 colon
CCRF-CEM leukemia = test system: CCRF-CEM leukemia
OVCAR-5 ovarian = test system: OVCAR-5 ovarian
TK-10 renal = test system: TK-10 renal
T-47D breast = test system: T-47D breast

Row | SMILES | GI50 (SK-MEL-5 melanoma) | GI50 (HCC-2998 colon) | TGI (HCC-2998 colon) | GI50 (U251 CNS) | TGI (U251 CNS) | GI50 (HT29 colon) | TGI (HT29 colon) | GI50 (MALME-3M melanoma) | TGI (MALME-3M melanoma) | GI50 (HCT-116 colon) | TGI (HCT-116 colon) | GI50 (CCRF-CEM leukemia) | TGI (CCRF-CEM leukemia) | GI50 (OVCAR-5 ovarian) | TGI (OVCAR-5 ovarian) | GI50 (TK-10 renal) | TGI (TK-10 renal) | TGI (SK-MEL-5 melanoma) | TGI (T-47D breast)
1 | CC(C)([NH-])CO.CC(C)([NH-])CO.[Cl][Cd][Cl] | 4.47 µM | 19.3 µM | 59.5 µM | 15.4 µM | 28.8 µM | 28.8 µM | 67.1 µM | 8.6 µM | 22.4 µM | 18.8 µM | 33.8 µM | 15.9 µM | 38.8 µM | 16.8 µM | 30.5 µM | 19.1 µM | 53.6 µM | – | –
2 | C[C@]12CC/C(=N\O)C=C1CC[C@@H]1C2CC[C@@]2(C)C1CC[C@@H]2OC1CCCCO1 (stereo partly drawn) | – | – | 29.5 µM | – | 32.4 µM | – | 28.8 µM | – | 41.4 µM | – | 43.8 µM | – | – | – | 29 µM | – | 42.2 µM | > 100 µM | –
3 | Cc1ccc(S(=O)(=O)NC2(C=O)CCCC3CCCCC32)cc1 (stereo not drawn) | – | – | > 100 µM | – | > 100 µM | – | – | – | > 100 µM | – | > 100 µM | – | > 100 µM | – | – | – | > 100 µM | > 100 µM | –
4 | O=c1[nH]c(=S)[nH]c2c1CN(CCCN1CCOCC1)CN2 | – | – | 73.3 µM | – | > 100 µM | – | > 100 µM | – | 42.3 µM | – | > 100 µM | – | – | – | > 100 µM | – | > 100 µM | > 100 µM | > 100 µM
5 | COc1ccc(/C(Cl)=C(\C=N/O)c2ccc(OC)c(OC)c2)cc1OC | – | – | > 100 µM | – | > 100 µM | – | > 100 µM | – | > 100 µM | – | > 100 µM | – | > 100 µM | – | > 100 µM | – | > 100 µM | > 100 µM | –
6 | O=C(COc1cc(O)c2c(=O)cc(-c3ccccc3)oc2c1)Nc1ccccc1C(F)(F)F | 4.1 µM | > 100 µM | > 100 µM | 2.01 µM | 4.45 µM | 6.48 µM | > 100 µM | 3.17 µM | > 100 µM | 1.83 µM | 4.06 µM | 19.6 µM | 64.1 µM | 7.18 µM | > 100 µM | 1.88 µM | 3.71 µM | 25.4 µM | –
7 | O=C(Nc1ccc(Cl)c(Cl)c1)Nc1c(Oc2ccc(Cl)c(Cl)c2)ccc(Cl)c1S(=O)(=O)O | 1.33 µM | 2.11 µM | > 100 µM | 3.16 µM | > 100 µM | 1.84 µM | > 100 µM | – | – | 1.32 µM | > 100 µM | 4.03 µM | > 100 µM | 4.09 µM | > 100 µM | – | – | 3.11 µM | –
8 | CC12CCC3(OCCO3)C(OC(=O)c3ccccc3)=C1CCC21OCCO1 (stereo not drawn) | – | – | > 100 µM | – | > 100 µM | – | > 100 µM | – | > 100 µM | – | > 100 µM | – | > 100 µM | – | > 100 µM | – | > 100 µM | > 100 µM | –
9 | Cc1cccc(C(C)(C)C)c1NC(=O)CC1C(=O)Nc2ccccc2S1(=O)=O (stereo not drawn) | – | – | 20.5 µM | – | 20.2 µM | – | 16.3 µM | – | 25.4 µM | – | 22.3 µM | – | 7.8 µM | – | 27 µM | – | 42 µM | 24.9 µM | –
10 | Nc1nc2c(ncn2C2C=CC(CO)C2)c(=O)[nH]1 (stereo not drawn) | – | – | > 100 µM | – | > 100 µM | – | > 100 µM | – | > 100 µM | – | > 100 µM | – | – | – | > 100 µM | – | > 100 µM | > 100 µM | > 100 µM
11 | COc1ccc(-c2cc(=O)c3cc(OC)ccc3[nH]2)cc1 | – | – | > 100 µM | – | – | – | > 100 µM | – | > 100 µM | – | > 100 µM | – | > 100 µM | – | > 100 µM | – | > 100 µM | > 100 µM | –
12 | CCC/C(=N\NC(=S)N1CC2CCC(CC2)C1)c1ccccn1 | 0.0467 µM | 0.244 µM | 1.48 µM and 1.86 µM | 0.142 µM | 0.627 µM and 1.38 µM | 0.0244 µM | 1.65 µM and 2.51 µM | – | 2.76 µM and 1.99 µM | – | 0.86 µM | – | – | 1.25 µM | 5.64 µM and 3 µM | – | 5.84 µM and 2.9 µM | 0.757 µM and 0.483 µM | 0.233 µM
13 | COc1cc(N(C)C)c(OC)cc1/C=C\c1ccnc2ccccc12 | – | – | > 10 µM | – | > 10 µM | – | > 10 µM | – | > 10 µM | – | > 10 µM | – | 9.41 µM | – | > 10 µM | – | > 10 µM | 3.13 µM | –
14 | C/C1=C/C(=O)O[C@@H]2C[C@@H](CC[C@H](C)/C=C\C=C\CC1)O[C@@](O)([C@@H]1CSC(=O)N1)C2 | – | – | > 10 µM | – | > 10 µM | – | > 10 µM | – | > 10 µM | – | > 10 µM | – | > 10 µM | – | > 10 µM | – | 1.01 µM | > 2.76 µM | –
15 | COc1cc(C2SCC(=O)N2c2ncc(C)s2)cc(OC)c1OC (stereo not drawn) | 17.3 µM | – | – | 18.1 µM | > 50 µM | 23.3 µM | > 50 µM | – | – | 27.5 µM | > 50 µM | – | – | > 50 µM | > 50 µM | 21.4 µM | > 50 µM | > 50 µM | –
16 | CN1C(=O)C2C3C=C4c5ccccc5N(c5ccccc5)C4(C2C1=O)[C@H]1C(=O)N(C)C(=O)[C@@H]31 (stereo partly drawn) | – | – | > 100 µM | – | > 100 µM | – | > 100 µM | – | > 100 µM | – | > 100 µM | – | > 100 µM | – | > 100 µM | – | > 100 µM | – | –
17 | C/C(=N\NS(=O)(=O)c1ccc(C)cc1)P(=O)(O)O | – | – | – | – | > 100 µM | – | > 100 µM | – | > 100 µM | – | > 100 µM | – | – | – | > 100 µM | – | > 100 µM | > 100 µM | > 100 µM
18 | [N-]=[N+]=NC(c1cn(C2CC(O)C(CO)O2)c(=O)[nH]c1=O)C(Cl)I (stereo not drawn) | – | – | > 100 µM | – | > 100 µM | – | > 100 µM | – | – | – | > 100 µM | – | – | – | > 100 µM | – | > 100 µM | > 100 µM | > 100 µM
19 | CCC[CH2][Sn]1([CH2]CCC)[O]CC(CN(C)Cc2ccccc2)[O]1 (stereo not drawn) | 11.9 µM | 11 µM | 23.3 µM | 5.75 µM | 17.8 µM | 15.2 µM | 34.3 µM | 2.72 µM | 9.21 µM | 15.7 µM | 29.2 µM | 2.37 µM | 8.09 µM | 12.7 µM | 25.3 µM | 3.63 µM | 11.4 µM | 24.3 µM | –
